{"source": "PubChem BioAssay (NCI)", "test_in_all_cases": "growth of human tumour cells (NCI), 48 h", "key": {"786-0 renal": {"system": "786-0 renal"}, "A498 renal": {"system": "A498 renal"}, "A549 NSCLC": {"system": "A549 NSCLC"}, "ACHN renal": {"system": "ACHN renal"}, "BT-549 breast": {"system": "BT-549 breast"}, "CAKI-1 renal": {"system": "CAKI-1 renal"}, "CCRF-CEM leukemia": {"system": "CCRF-CEM leukemia"}, "COLO 205 colon": {"system": "COLO 205 colon"}, "DU-145 prostate": {"system": "DU-145 prostate"}, "EKVX NSCLC": {"system": "EKVX NSCLC"}, "HCC-2998 colon": {"system": "HCC-2998 colon"}, "HCT-116 colon": {"system": "HCT-116 colon"}, "HCT-15 colon": {"system": "HCT-15 colon"}, "HL-60(TB) leukemia": {"system": "HL-60(TB) leukemia"}, "HOP-62 NSCLC": {"system": "HOP-62 NSCLC"}, "HOP-92 NSCLC": {"system": "HOP-92 NSCLC"}, "HS 578T breast": {"system": "HS 578T breast"}, "HT29 colon": {"system": "HT29 colon"}, "IGROV1 ovarian": {"system": "IGROV1 ovarian"}, "K-562 leukemia": {"system": "K-562 leukemia"}, "KM12 colon": {"system": "KM12 colon"}, "LOX IMVI melanoma": {"system": "LOX IMVI melanoma"}, "M14 melanoma": {"system": "M14 melanoma"}, "MALME-3M melanoma": {"system": "MALME-3M melanoma"}, "MCF7 breast": {"system": "MCF7 breast"}, "MDA-MB-231 breast": {"system": "MDA-MB-231 breast"}, "MDA-MB-435": {"system": "MDA-MB-435"}, "MDA-MB-468 breast": {"system": "MDA-MB-468 breast"}, "MOLT-4 leukemia": {"system": "MOLT-4 leukemia"}, "NCI-H226 lung": {"system": "NCI-H226 lung"}}, "note": "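Briefly, cells in 96-well plates were exposed to five compound concentrations for 48 h, and endpoints were estimated by linear interpolation. The concentration for 50% growth inhibition is given as GI50. TGI: total growth inhibition.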"}
{"smiles": "N#Cc1c(NC(=O)c2ccc(C(F)(F)F)cc2C(F)(F)F)sc2c1CCC(=O)C2", "values": [{"measurement": "GI50", "setting": "786-0 renal", "result": 442, "unit": "nM"}, {"measurement": "TGI", "setting": "786-0 renal", "result": 4.08, "unit": "µM"}, {"measurement": "GI50", "setting": "A498 renal", "result": 13, "unit": "µM"}, {"measurement": "TGI", "setting": "A498 renal", "result": 28.1, "unit": "µM"}, {"measurement": "GI50", "setting": "A549 NSCLC", "result": 3.29, "unit": "µM"}, {"measurement": "TGI", "setting": "A549 NSCLC", "result": 30, "unit": "µM"}, {"measurement": "GI50", "setting": "ACHN renal", "result": 331, "unit": "nM"}, {"measurement": "TGI", "setting": "ACHN renal", "result": 1180, "unit": "nM"}, {"measurement": "GI50", "setting": "BT-549 breast", "result": 309, "unit": "nM"}, {"measurement": "TGI", "setting": "BT-549 breast", "result": 1110, "unit": "nM"}, {"measurement": "GI50", "setting": "CAKI-1 renal", "result": 610, "unit": "nM"}, {"measurement": "TGI", "setting": "CAKI-1 renal", "result": 2120, "unit": "nM"}, {"measurement": "GI50", "setting": "CCRF-CEM leukemia", "result": 308, "unit": "nM"}, {"measurement": "TGI", "setting": "CCRF-CEM leukemia", "result": 3.2, "unit": "µM"}, {"measurement": "GI50", "setting": "COLO 205 colon", "result": 1310, "unit": "nM"}, {"measurement": "TGI", "setting": "COLO 205 colon", "result": 2720, "unit": "nM"}, {"measurement": "GI50", "setting": "DU-145 prostate", "result": 3.72, "unit": "µM"}, {"measurement": "TGI", "setting": "DU-145 prostate", "result": 14.9, "unit": "µM"}, {"measurement": "GI50", "setting": "EKVX NSCLC", "result": 1650, "unit": "nM"}, {"measurement": "TGI", "setting": "EKVX NSCLC", "result": 7.84, "unit": "µM"}, {"measurement": "GI50", "setting": "HCC-2998 colon", "result": 1660, "unit": "nM"}, {"measurement": "TGI", "setting": "HCC-2998 colon", "result": 5.6, "unit": "µM"}, {"measurement": "GI50", "setting": "HCT-116 colon", "result": 345, "unit": "nM"}, {"measurement": "TGI", "setting": "HCT-116 colon", "result": 6.64, "unit": "µM"}, {"measurement": "GI50", "setting": "HCT-15 colon", "result": 335, "unit": "nM"}, {"measurement": "TGI", "setting": "HCT-15 colon", "result": 1390, "unit": "nM"}, {"measurement": "GI50", "setting": "HL-60(TB) leukemia", "result": 235, "unit": "nM"}, {"measurement": "TGI", "setting": "HL-60(TB) leukemia", "result": 3.27, "unit": "µM"}, {"measurement": "GI50", "setting": "HOP-62 NSCLC", "result": 3.45, "unit": "µM"}, {"measurement": "TGI", "setting": "HOP-62 NSCLC", "result": 14, "unit": "µM"}, {"measurement": "GI50", "setting": "HOP-92 NSCLC", "result": 234, "unit": "nM"}, {"measurement": "TGI", "setting": "HOP-92 NSCLC", "result": 770, "unit": "nM"}, {"measurement": "GI50", "setting": "HS 578T breast", "result": 999, "unit": "nM"}, {"measurement": "TGI", "setting": "HS 578T breast", "result": 8.55, "unit": "µM"}, {"measurement": "GI50", "setting": "HT29 colon", "result": 542, "unit": "nM"}, {"measurement": "TGI", "setting": "HT29 colon", "result": 2950, "unit": "nM"}, {"measurement": "GI50", "setting": "IGROV1 ovarian", "result": 894, "unit": "nM"}, {"measurement": "TGI", "setting": "IGROV1 ovarian", "result": 5.52, "unit": "µM"}, {"measurement": "GI50", "setting": "K-562 leukemia", "result": 275, "unit": "nM"}, {"measurement": "TGI", "setting": "K-562 leukemia", "result": "> 40.2", "unit": "µM"}, {"measurement": "GI50", "setting": "KM12 colon", "result": 468, "unit": "nM"}, {"measurement": "TGI", "setting": "KM12 colon", "result": 2330, "unit": "nM"}, {"measurement": "GI50", "setting": "LOX IMVI melanoma", "result": 369, "unit": "nM"}, {"measurement": "TGI", "setting": "LOX IMVI melanoma", "result": 2170, "unit": "nM"}, {"measurement": "GI50", "setting": "M14 melanoma", "result": 901, "unit": "nM"}, {"measurement": "TGI", "setting": "M14 melanoma", "result": 2840, "unit": "nM"}, {"measurement": "GI50", "setting": "MALME-3M melanoma", "result": 369, "unit": "nM"}, {"measurement": "TGI", "setting": "MALME-3M melanoma", "result": 1450, "unit": "nM"}, {"measurement": "GI50", "setting": "MCF7 breast", "result": 442, "unit": "nM"}, {"measurement": "TGI", "setting": "MCF7 breast", "result": 10.8, "unit": "µM"}, {"measurement": "GI50", "setting": "MDA-MB-231 breast", "result": 769, "unit": "nM"}, {"measurement": "TGI", "setting": "MDA-MB-231 breast", "result": 2390, "unit": "nM"}, {"measurement": "GI50", "setting": "MDA-MB-435", "result": 888, "unit": "nM"}, {"measurement": "TGI", "setting": "MDA-MB-435", "result": 2980, "unit": "nM"}, {"measurement": "GI50", "setting": "MDA-MB-468 breast", "result": 565, "unit": "nM"}, {"measurement": "TGI", "setting": "MDA-MB-468 breast", "result": 1820, "unit": "nM"}, {"measurement": "GI50", "setting": "MOLT-4 leukemia", "result": 386, "unit": "nM"}, {"measurement": "TGI", "setting": "MOLT-4 leukemia", "result": 7.21, "unit": "µM"}, {"measurement": "GI50", "setting": "NCI-H226 lung", "result": 2240, "unit": "nM"}]}
